system: IFNγ-induced NO production in RAW264.7 mouse macrophages; experiment: Suppression of IFNγ-induced nitric oxide production (Griess reagent); type: cell-based; conditions: Mus musculus, RAW264.7, RAW264.7 cells, 2 h pre-treatment (0-200 nM), then IFNγ 24 h; normalized to cell viability
Text: Nitric Oxide Production and Cell Viability.

| SMILES | IC50 |
| --- | --- |
| COc1ccc(-c2c3c(nn2C)[C@@]2(C)C=C(C#N)C(=O)C(C)(C)[C@@H]2CC3)cc1 [TX63515] | 35 nM |
| C[C@@H]1C(=O)C(C#N)=C[C@]2(C)c3nn(C)c(-c4cncnc4)c3CC[C@@H]12 [TX63748] | 23 nM |
| C[C@@H]1C(=O)C(C#N)=C[C@]2(C)c3nn(C)c(-c4cccnc4)c3CC[C@@H]12 [TX63722] | 8.3 nM |
| COc1ccc(-c2ncc3c(n2)[C@@]2(C)C=C(C#N)C(=O)C(C)(C)[C@@H]2CC3)cc1 [TX63590] | 31 nM |
| CC1(C)C(=O)C(C#N)=C[C@]2(C)c3c(cnc4ccnn34)CC[C@@H]12 [TX63627] | 38 nM |
| C[C@@H]1C(=O)C(C#N)=C[C@]2(C)c3nn(C)c(-c4ccccc4)c3CC[C@@H]12 [TX63791] | 2.3 nM |
| CC(=O)n1nc2c(c1-c1ccccc1)CC[C@H]1C(C)(C)C(=O)C(C#N)=C[C@]21C [TX63611] | 22 nM |
| Cn1nc2c(c1-c1nnn(Cc3ccccc3)n1)CC[C@H]1C(C)(C)C(=O)C(C#N)=C[C@]21C [TX63729] | 29 nM |
| COc1nc(-c2cncnc2)nc2c1CC[C@H]1[C@H](C)C(=O)C(C#N)=C[C@]21C [TX63757] | 4.3 nM |
| C[C@@H]1C(=O)C(C#N)=C[C@]2(C)c3nn(C)cc3CC[C@@H]12 [TX63551] | 49 nM |
| C[C@@H]1C(=O)C(C#N)=C[C@]2(C)c3nn(C)cc3C[C@@H]12 [TX63533] | > 200 nM |
| C[C@@H]1C(=O)C(C#N)=C[C@]2(C)c3nn(C)c(-c4ccccn4)c3CC[C@@H]12 [TX63851] | 5.1 nM |
| CCOC(=O)n1nc2c(c1-c1ccccc1)CC[C@H]1[C@H](C)C(=O)C(C#N)=C[C@]21C [TX63871] | 7.5 nM |
| CC1(C)C(=O)C(C#N)=C[C@]2(C)c3[nH]c(=O)ncc3CC[C@@H]12 [TX63553] | > 200 nM |
| C[C@@H]1C(=O)C(C#N)=C[C@]2(C)c3nn(C)c(-c4cnn(C)c4)c3CC[C@@H]12 [TX63690] | 11 nM |
| CCCCNc1nc(C)nc2c1CC[C@H]1[C@H](C)C(=O)C(C#N)=C[C@]21C [TX63827] | 59 nM |
| Cc1c2c(nn1C)[C@@]1(C)C=C(C#N)C(=O)C(C)(C)[C@@H]1CC2 [TX63637] | 45 nM |
| COc1ccccc1-c1c2c(nn1C)[C@@]1(C)C=C(C#N)C(=O)C(C)(C)[C@@H]1CC2 [TX63509] | 38 nM |
| Cn1[nH]c2c(c1=O)CC[C@H]1C(C)(C)C(=O)C(C#N)=C[C@]21C [TX63676] | > 200 nM |
| CC1(C)C(=O)C(C#N)=C[C@]2(C)c3nc(-c4ccccn4)ncc3CC[C@@H]12 [TX63641] | 43 nM |
| CC1(C)C(=O)C(C#N)=C[C@]2(C)c3nn(C4CCCCC4)cc3CC[C@@H]12 [TX63444] | 140 nM |
| C[C@@H]1C(=O)C(C#N)=C[C@]2(C)c3nn(C)c(C#N)c3CC[C@@H]12 [TX63725] | 24 nM |
| Cn1nc2c(c1-c1ccccc1)CC[C@H]1C3(CCCC3)C(=O)C(C#N)=C[C@]21C [TX63504] | 20 nM |
| C[C@@H]1C(=O)C(C#N)=C[C@]2(C)c3c(c(Br)nn3C)CC[C@@H]12 [TX63649] | 21 nM |
| CNc1nc(C)nc2c1CC[C@H]1[C@H](C)C(=O)C(C#N)=C[C@]21C [TX63852] | 30 nM |
| CC1(C)C(=O)C(C#N)=C[C@]2(C)c3[nH]ncc3CC[C@@H]12 [TX63467] | > 200 nM |

| SMILES | IC50 |
| --- | --- |
| Cn1nc2c(c1NC(=O)OC(C)(C)C)CC[C@H]1C(C)(C)C(=O)C(C#N)=C[C@]21C [TX63594] | > 200 nM |
| CC1(C)C(=O)C(C#N)=C[C@]2(C)c3nn(C(C)(C)C)cc3CC[C@@H]12 [TX63450] | 148 nM |
| Cn1nc2c(c1C(=O)O)CC[C@H]1C(C)(C)C(=O)C(C#N)=C[C@]21C [TX63631] | > 200 nM |
| Cn1nc2c(c1Br)CC[C@H]1C(C)(C)C(=O)C(C#N)=C[C@]21C [TX63445] | 37.9 nM |
| Cn1nc2c(c1-c1ccccc1)CCC1=CC(=O)C=C[C@@]12C [TX63578] | > 200 nM |
| CC1(C)C(=O)C(C#N)=C[C@]2(C)c3nc(-c4ccncc4)ncc3CC[C@@H]12 [TX63636] | 27 nM |
| COc1nc(C)nc2c1CC[C@H]1C(C)(C)C(=O)C(C#N)=C[C@]21C [TX63595] | 20 nM |
| CC1(C)C(=O)C(C#N)=C[C@]2(C)c3c(cnn3-c3ccccc3)CC[C@@H]12 [TX63524] | 68 nM |
| C[C@@H]1C(=O)C(C#N)=C[C@]2(C)c3nn(C)c(-c4ccncc4)c3CC[C@@H]12 [TX63720] | 4.9 nM |
| COc1nc(OC)c2c(n1)[C@]1(C)C=C(C#N)C(=O)[C@H](C)[C@H]1CC2 [TX63794] | 88.5 nM |
| COc1ccccc1-c1nc(OC)c2c(n1)[C@@]1(C)C=C(C#N)C(=O)[C@@H](C)[C@@H]1CC2 [TX63727] | 11.5 nM |
| Cc1noc(-c2c3c(nn2C)[C@@]2(C)C=C(C#N)C(=O)C(C)(C)[C@@H]2CC3)n1 [TX63760] | 6.2 nM |
| Cc1nc(N(C)C)c2c(n1)[C@@]1(C)C=C(C#N)C(=O)[C@@H](C)[C@@H]1CC2 [TX63774] | 26.7 nM |
| C[C@@H]1C(=O)C(C#N)=C[C@]2(C)c3nn(C)c(C(=O)N(C)C)c3CC[C@@H]12 [TX63655] | > 200 nM |
| Cn1nc2c(c1-c1ccccc1)CC[C@H]1C(C)(C)C(=O)C(C(F)(F)F)=C[C@]21C [TX63803] | 50 nM |
| CC1(C)C(=O)C(C#N)=C[C@]2(C)c3nn(C(=O)c4ccccc4)cc3CC[C@@H]12 [TX63642] | 147 nM |
| C[C@@H]1C(=O)C(C(F)(F)F)=C[C@]2(C)c3nn(C)c(-c4ccccc4)c3CC[C@@H]12 [TX63829] | 22 nM |
| C[C@@H]1C(=O)C(C#N)=C[C@]2(C)c3nc(-c4ccccc4)n(C)c(=O)c3CC[C@@H]12 [TX63666] | 25 nM |
| Cc1nc(N2CCOCC2)c2c(n1)[C@@]1(C)C=C(C#N)C(=O)[C@@H](C)[C@@H]1CC2 [TX63758] | 55 nM |
| CC1(C)C(=O)C(C#N)=C[C@]2(C)c3ncncc3CC[C@@H]12 [TX63542] | 55 nM |
| CC1(C)C(=O)C(C#N)=C[C@]2(C)c3[nH]nc(-c4ccccc4)c3CC[C@@H]12 [TX63579] | 22 nM |
| CC1(C)C(=O)C(C#N)=C[C@]2(C)C(=O)c3cnn(-c4ccccc4)c3C[C@@H]12 [TX63456] | > 200 nM |
| Cn1nnc(-c2c3c(nn2C)[C@@]2(C)C=C(C#N)C(=O)C(C)(C)[C@@H]2CC3)n1 [TX63665] | 14 nM |
| COc1nc(C)nc2c1CC[C@H]1[C@H](C)C(=O)C(C#N)=C[C@]21C [TX63646] | 8.5 nM |
| CCOc1nc(OCC)c2c(n1)[C@@]1(C)C=C(C#N)C(=O)[C@@H](C)[C@@H]1CC2 [TX63736] | 9.8 nM |
| C[C@@H]1C(=O)C(C#N)=C[C@]2(C)c3nn(C)c(-c4cccc(F)c4)c3CC[C@@H]12 [TX63659] | 8.1 nM |

| SMILES | IC50 |
| --- | --- |
| C[C@H]1C(=O)C(C#N)=C[C@@]2(C)c3nn(C)c(-c4ccccc4)c3CC[C@H]12 [TX63792] | 147 nM |
| Cn1nc2c(c1C(=O)c1ccccc1)CC[C@H]1C(C)(C)C(=O)C(C#N)=C[C@]21C [TX63667] | 155 nM |
| Cc1noc(-c2c3c(nn2C)[C@@]2(C)C=C(C#N)C(=O)[C@@H](C)[C@@H]2CC3)n1 [TX63872] | 4.6 nM |
| CC1(C)C(=O)C(C#N)=C[C@]2(C)c3nn(CC(F)(F)F)cc3CC[C@@H]12 [TX63454] | 134 nM |
| CC1(C)C(=O)C(C#N)=C[C@]2(C)c3c(cnc4c(-c5ccccc5)cnn34)CC[C@@H]12 [TX63626] | 38 nM |
| Cc1ccc(-c2c3c(nn2C)[C@@]2(C)C=C(C#N)C(=O)C(C)(C)[C@@H]2CC3)cc1 [TX63514] | 37 nM |
| CC1=C2CCc3c(nn(C)c3-c3cccc(F)c3)[C@@]2(C)C=C(C#N)C1=O [TX63663] | 108 nM |
| Cn1nc2c(c1-c1ccccc1)CC[C@H]1[C@H](c3ccccc3)C(=O)C(C#N)=C[C@]21C [TX63629] | 137 nM |
| Cn1nc2c(c1-c1ccccc1Cl)CC[C@H]1C(C)(C)C(=O)C(C#N)=C[C@]21C [TX63491] | 35 nM |
| Cn1cc2c(n1)[C@@]1(C)C=C(C#N)C(=O)C3(CCCC3)[C@@H]1CC2 [TX63487] | 85 nM |
| Cn1nc2c(c1-c1ccc(Oc3ccccc3)cc1)CC[C@H]1C(C)(C)C(=O)C(C#N)=C[C@]21C [TX63587] | 40 nM |
| CCOc1nc(C(C)(C)C)nc2c1CC[C@H]1[C@H](C)C(=O)C(C#N)=C[C@]21C [TX63900] | 40 nM |
| CC1=C2CCc3c(nn(C)c3-c3cccc(C)c3)[C@@]2(C)C=C(C#N)C1=O [TX63656] | > 200 nM |
| CC1(C)C(=O)C(C#N)=C[C@]2(C)c3nn(CCO)cc3CC[C@@H]12 [TX63464] | > 200 nM |
| CCOC(=O)c1c2c(nn1C)[C@@]1(C)C=C(C#N)C(=O)C(C)(C)[C@@H]1CC2 [TX63630] | 38 nM |
| COc1nc(-c2ccncc2)nc2c1CC[C@H]1[C@H](C)C(=O)C(C#N)=C[C@]21C [TX63728] | 6.7 nM |
| Cn1cc2c(n1)[C@@]1(C)C=C(C#N)C(=O)C(C)(C)[C@H]1C2 [TX63436] | > 200 nM |
| Cn1nc2c(c1C(N)=O)CC[C@H]1C(C)(C)C(=O)C(C#N)=C[C@]21C [TX63619] | > 200 nM |
| Cc1nc(-c2ccccc2)c2c(n1)[C@@]1(C)C=C(C#N)C(=O)C(C)(C)[C@@H]1CC2 [TX63529] | 46 nM |
| CC(C)n1cnc(-c2c3c(nn2C)[C@@]2(C)C=C(C#N)C(=O)C(C)(C)[C@@H]2CC3)n1 [TX63905] | 129 nM |
| Cn1nc2c(c1-c1ccccc1)C(=O)C[C@H]1C(C)(C)C(=O)C=C[C@]21C [TX63804] | > 200 nM |
| CCOc1nc(C)nc2c1CC[C@H]1[C@H](C)C(=O)C(C#N)=C[C@]21C [TX63773] | 6 nM |
| Cn1cnc(-c2c3c(nn2C)[C@@]2(C)C=C(C#N)C(=O)C(C)(C)[C@@H]2CC3)n1 [TX63714] | > 200 nM |
| Cn1nc2c(c1-c1ccccc1)CC[C@H]1C(C)(C)C(=O)[C@]3(C#N)O[C@@H]3[C@]21C [TX63834] | 105 nM |

same assay, conditions: RAW264.7 cells, 2 h pre-treatment (0-200 nM), then IFNγ 24 h; normalized to cell viability

| SMILES | IC50 |
| --- | --- |
| COc1nc(OC)c2c(n1)[C@@]1(C)C=C(C#N)C(=O)[C@@H](C)[C@@H]1CC2 [TX63793] | 2.5 nM |
